ChEMBL document CHEMBL5465560, “Selectivity Literature for EUbOPEN Chemogenomic Library” (2024)

Tests used:
[1] = molecular target: High affinity nerve growth factor receptor (Homo sapiens, UniProt P04629); test: Selectivity interaction (KinaseProfiler screening (Millipore)) EUB0000601a NTRK1; details: at 3 µM
[2] = molecular target: Mitogen-activated protein kinase 8 (Homo sapiens, UniProt P45983); test: Selectivity interaction (Enyzmatic assay) EUB0000601a MAPK8
[3] = molecular target: LIM domain kinase 1 (Homo sapiens) (UniProt P53667); test: Selectivity interaction (KinomeScan (DiscoverX)) EUB0000655a LIMK1; details: at 10 µM
[4] = molecular target: Casein kinase I isoform delta (Homo sapiens, UniProt P48730); test: Selectivity interaction (KinomeScan (DiscoverX)) EUB0000655a CSNK1D; details: at 10 µM
Chain of Casein kinase I isoform delta (P48730 whole entry, looked up, canonical isoform): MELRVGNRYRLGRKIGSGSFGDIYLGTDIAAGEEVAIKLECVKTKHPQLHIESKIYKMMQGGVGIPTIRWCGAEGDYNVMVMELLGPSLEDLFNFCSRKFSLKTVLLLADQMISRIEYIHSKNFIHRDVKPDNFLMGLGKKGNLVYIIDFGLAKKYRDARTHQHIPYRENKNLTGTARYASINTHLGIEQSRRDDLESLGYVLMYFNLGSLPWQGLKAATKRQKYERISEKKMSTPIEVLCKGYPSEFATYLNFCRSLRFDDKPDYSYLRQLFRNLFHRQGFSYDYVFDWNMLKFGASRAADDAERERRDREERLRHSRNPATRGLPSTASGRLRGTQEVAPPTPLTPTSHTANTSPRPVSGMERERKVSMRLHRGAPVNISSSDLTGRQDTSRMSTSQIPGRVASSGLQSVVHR

[5] = molecular target: Serine/threonine-protein kinase pim-3 (Homo sapiens) (UniProt Q86V86); test: Selectivity interaction (KinomeScan (DiscoverX)) EUB0001079a PIM3; details: at 1 µM
[6] = molecular target: T1, Serine/threonine-protein kinase Sgk3 (Homo sapiens) (UniProt Q96BR1); test: Selectivity interaction (KinomeScan (DiscoverX)) EUB0000045b SGK3
T1 sequence (whole entry): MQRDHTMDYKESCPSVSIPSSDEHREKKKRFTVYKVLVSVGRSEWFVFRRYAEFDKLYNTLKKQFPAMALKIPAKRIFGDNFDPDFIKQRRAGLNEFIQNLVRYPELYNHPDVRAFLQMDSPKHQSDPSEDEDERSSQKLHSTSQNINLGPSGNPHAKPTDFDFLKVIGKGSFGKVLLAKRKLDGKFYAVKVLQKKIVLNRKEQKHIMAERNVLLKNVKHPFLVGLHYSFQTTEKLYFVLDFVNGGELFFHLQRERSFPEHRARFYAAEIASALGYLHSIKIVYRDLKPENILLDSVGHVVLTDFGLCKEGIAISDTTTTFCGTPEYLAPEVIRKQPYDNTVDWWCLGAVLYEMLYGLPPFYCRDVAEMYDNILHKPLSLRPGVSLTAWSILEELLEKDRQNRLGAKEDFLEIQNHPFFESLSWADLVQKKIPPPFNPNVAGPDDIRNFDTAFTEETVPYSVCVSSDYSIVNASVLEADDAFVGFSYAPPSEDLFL

[7] = molecular target: T2, N-lysine methyltransferase KMT5A (Homo sapiens) (UniProt Q9NQR1); details: at 1 µM
T2 sequence (whole entry): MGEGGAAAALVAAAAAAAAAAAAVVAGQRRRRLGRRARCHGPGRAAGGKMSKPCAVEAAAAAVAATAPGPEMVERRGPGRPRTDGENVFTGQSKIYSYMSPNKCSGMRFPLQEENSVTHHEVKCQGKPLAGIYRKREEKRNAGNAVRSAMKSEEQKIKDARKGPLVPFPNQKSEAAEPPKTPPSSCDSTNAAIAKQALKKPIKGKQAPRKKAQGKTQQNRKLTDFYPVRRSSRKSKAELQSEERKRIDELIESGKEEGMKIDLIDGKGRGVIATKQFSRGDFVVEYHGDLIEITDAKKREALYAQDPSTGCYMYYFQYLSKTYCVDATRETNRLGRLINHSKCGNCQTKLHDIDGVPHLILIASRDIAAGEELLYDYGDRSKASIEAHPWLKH

[8] = molecular target: Mast/stem cell growth factor receptor Kit (Homo sapiens, UniProt P10721); test: Selectivity interaction (Kinase panel (Invitrogen)) EUB0000639a KIT; details: at 200 nM
Chain of Mast/stem cell growth factor receptor Kit (P10721 whole entry): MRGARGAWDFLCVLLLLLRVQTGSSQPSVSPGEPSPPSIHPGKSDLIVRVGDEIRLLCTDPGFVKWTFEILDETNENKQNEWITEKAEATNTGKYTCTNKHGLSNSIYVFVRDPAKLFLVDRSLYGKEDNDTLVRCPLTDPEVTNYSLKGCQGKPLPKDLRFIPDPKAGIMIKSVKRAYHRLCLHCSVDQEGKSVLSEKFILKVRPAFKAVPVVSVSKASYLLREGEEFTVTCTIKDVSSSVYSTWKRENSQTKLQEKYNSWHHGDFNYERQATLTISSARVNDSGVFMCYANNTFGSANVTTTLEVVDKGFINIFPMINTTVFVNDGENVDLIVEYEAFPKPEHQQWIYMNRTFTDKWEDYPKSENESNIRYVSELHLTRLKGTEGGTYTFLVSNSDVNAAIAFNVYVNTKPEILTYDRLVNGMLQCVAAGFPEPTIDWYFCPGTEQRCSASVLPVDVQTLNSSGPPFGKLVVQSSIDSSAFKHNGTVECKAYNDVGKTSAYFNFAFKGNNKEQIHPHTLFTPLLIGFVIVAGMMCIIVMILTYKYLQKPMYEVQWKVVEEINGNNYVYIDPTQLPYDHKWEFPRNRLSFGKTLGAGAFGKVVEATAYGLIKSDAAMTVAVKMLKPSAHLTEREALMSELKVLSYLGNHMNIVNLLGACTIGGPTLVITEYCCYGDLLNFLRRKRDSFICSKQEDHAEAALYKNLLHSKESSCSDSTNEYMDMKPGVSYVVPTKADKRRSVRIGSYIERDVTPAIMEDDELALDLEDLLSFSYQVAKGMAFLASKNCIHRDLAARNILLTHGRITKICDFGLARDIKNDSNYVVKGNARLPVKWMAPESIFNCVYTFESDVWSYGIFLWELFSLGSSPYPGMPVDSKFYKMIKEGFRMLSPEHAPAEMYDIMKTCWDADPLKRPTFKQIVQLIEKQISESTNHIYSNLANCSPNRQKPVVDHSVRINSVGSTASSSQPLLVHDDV

[9] = molecular target: Fibroblast growth factor receptor 3 (Homo sapiens, UniProt P22607); test: Selectivity interaction (Kinase panel (Invitrogen)) EUB0000639a FGFR3; details: at 200 nM
Chain of Fibroblast growth factor receptor 3 (P22607 23-806 limits assumed): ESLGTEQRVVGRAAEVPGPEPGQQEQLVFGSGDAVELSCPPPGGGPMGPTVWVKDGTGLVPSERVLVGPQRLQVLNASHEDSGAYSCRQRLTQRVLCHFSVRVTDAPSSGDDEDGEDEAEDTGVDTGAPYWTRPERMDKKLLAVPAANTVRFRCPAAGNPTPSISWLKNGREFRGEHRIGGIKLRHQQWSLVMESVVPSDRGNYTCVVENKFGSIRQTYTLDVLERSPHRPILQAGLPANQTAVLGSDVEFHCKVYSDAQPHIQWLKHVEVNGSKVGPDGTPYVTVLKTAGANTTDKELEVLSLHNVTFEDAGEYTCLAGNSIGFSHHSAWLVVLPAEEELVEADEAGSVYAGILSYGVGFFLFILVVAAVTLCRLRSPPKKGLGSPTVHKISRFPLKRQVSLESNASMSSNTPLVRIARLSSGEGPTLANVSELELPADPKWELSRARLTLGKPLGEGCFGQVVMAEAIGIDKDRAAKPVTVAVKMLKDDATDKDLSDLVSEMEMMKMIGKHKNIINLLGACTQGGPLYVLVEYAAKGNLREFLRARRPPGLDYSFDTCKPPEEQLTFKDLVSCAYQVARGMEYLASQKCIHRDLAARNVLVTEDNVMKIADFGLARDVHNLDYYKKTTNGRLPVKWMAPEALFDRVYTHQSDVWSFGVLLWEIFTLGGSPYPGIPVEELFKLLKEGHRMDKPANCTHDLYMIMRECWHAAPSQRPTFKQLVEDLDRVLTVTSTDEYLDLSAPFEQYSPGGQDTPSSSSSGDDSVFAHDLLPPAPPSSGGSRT

[10] = molecular target: T3, Serine/threonine-protein kinase LATS1 (Homo sapiens) (UniProt O95835); test: Selectivity interaction (KinomeScan (DiscoverX)) EUB0000092b LATS1; details: at 10 µM
T3 sequence (whole entry): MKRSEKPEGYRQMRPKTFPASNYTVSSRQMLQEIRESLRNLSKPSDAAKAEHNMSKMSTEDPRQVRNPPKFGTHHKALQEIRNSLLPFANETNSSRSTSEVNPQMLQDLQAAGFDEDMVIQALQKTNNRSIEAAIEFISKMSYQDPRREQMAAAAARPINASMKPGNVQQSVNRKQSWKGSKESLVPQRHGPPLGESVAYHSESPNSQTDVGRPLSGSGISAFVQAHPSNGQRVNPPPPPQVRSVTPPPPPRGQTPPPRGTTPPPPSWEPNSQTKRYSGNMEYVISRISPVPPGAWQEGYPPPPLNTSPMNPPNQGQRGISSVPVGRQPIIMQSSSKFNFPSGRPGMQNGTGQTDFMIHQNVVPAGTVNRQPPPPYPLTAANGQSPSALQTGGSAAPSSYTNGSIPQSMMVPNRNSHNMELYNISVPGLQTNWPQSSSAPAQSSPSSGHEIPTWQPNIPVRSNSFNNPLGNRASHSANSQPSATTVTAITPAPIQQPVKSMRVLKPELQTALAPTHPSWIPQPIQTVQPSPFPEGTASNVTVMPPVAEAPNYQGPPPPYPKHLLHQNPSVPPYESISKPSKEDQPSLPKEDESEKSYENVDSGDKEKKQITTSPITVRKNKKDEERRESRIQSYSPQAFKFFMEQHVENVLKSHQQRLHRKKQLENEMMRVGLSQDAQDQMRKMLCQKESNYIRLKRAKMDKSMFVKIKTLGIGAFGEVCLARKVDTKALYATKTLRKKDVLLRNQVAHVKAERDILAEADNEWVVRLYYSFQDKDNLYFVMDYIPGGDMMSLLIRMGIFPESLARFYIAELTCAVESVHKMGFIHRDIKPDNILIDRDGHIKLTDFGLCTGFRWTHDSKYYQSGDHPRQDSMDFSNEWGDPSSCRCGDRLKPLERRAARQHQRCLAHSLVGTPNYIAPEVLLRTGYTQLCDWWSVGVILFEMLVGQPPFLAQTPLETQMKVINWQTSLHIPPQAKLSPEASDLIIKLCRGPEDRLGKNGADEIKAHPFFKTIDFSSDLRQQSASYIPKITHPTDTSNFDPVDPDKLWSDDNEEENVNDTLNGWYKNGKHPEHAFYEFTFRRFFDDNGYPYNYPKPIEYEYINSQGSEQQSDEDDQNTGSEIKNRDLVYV

[11] = molecular target: Macrophage colony-stimulating factor 1 receptor (Homo sapiens) (UniProt P07333); test: Selectivity interaction (Kinase screening (Nanosyn)) EUB0000604a CSF1R
Chain of Macrophage colony-stimulating factor 1 receptor (Homo sapiens) (P07333 whole entry): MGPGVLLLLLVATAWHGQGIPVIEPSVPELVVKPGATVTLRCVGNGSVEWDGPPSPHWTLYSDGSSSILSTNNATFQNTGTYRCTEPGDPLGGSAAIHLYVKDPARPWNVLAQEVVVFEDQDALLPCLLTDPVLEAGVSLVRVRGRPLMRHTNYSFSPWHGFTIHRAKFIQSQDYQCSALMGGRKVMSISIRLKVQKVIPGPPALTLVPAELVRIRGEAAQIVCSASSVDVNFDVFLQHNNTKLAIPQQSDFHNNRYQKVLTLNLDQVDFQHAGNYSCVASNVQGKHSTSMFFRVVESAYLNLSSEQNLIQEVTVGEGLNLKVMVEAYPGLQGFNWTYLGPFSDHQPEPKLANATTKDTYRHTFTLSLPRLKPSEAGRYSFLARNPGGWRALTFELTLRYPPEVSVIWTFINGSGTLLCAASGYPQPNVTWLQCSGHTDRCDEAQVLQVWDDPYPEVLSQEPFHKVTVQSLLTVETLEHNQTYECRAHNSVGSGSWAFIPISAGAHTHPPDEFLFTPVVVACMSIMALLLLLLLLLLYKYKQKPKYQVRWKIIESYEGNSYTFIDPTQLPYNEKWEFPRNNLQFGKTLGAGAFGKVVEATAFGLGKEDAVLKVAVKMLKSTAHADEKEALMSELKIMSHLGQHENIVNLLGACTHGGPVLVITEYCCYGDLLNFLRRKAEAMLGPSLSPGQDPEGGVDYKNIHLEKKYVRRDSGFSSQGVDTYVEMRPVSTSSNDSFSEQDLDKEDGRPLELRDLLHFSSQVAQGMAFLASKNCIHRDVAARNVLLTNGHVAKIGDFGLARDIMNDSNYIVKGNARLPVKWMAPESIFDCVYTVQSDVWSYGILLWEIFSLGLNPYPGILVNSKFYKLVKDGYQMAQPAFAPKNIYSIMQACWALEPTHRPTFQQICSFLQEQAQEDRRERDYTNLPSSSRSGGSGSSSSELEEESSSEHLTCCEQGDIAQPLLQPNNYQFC

Insulin receptor = Insulin receptor (Homo sapiens, UniProt P06213); test: Selectivity interaction (Kinase screening (Nanosyn)) EUB0000604a INSR
Chain of Insulin receptor (P06213 28-758 limits assumed): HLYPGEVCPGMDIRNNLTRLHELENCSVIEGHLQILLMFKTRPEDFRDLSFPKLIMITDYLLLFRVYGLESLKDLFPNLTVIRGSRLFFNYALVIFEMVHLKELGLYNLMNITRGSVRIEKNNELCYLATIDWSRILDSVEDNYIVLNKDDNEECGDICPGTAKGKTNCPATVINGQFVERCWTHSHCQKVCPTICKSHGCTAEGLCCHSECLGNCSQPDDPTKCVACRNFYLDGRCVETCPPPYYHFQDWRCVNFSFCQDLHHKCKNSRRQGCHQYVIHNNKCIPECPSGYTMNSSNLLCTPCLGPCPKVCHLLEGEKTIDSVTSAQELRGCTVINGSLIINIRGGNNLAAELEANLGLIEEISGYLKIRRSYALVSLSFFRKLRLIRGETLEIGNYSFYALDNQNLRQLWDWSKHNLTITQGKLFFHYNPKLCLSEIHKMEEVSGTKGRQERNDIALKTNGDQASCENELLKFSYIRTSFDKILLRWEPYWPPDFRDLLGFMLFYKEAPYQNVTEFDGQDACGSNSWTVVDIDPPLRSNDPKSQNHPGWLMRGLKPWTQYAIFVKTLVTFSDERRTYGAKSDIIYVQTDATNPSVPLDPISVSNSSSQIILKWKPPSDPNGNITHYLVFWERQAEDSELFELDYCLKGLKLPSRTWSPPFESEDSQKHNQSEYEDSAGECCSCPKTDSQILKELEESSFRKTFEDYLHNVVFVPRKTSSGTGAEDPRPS
Chain of Insulin receptor (P06213 763-1382 limits assumed): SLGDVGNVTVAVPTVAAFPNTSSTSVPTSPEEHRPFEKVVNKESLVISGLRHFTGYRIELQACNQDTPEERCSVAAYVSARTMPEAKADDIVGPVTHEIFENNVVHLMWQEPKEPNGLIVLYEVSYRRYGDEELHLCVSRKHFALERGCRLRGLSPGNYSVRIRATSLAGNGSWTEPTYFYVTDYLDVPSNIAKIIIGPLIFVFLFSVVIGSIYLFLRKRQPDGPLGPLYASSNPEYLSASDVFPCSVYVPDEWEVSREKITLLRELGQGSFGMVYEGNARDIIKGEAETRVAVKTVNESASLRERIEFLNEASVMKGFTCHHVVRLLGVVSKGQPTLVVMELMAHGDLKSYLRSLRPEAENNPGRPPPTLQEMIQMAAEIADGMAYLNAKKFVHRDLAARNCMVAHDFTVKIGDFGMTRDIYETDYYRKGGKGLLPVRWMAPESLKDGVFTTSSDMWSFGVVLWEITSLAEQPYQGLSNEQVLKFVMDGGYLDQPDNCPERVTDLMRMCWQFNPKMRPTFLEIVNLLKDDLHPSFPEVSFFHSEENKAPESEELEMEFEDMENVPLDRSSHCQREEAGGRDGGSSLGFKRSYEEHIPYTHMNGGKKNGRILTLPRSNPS

Chain of Mitogen-activated protein kinase 8 (P45983 whole entry, the tested form may be a part): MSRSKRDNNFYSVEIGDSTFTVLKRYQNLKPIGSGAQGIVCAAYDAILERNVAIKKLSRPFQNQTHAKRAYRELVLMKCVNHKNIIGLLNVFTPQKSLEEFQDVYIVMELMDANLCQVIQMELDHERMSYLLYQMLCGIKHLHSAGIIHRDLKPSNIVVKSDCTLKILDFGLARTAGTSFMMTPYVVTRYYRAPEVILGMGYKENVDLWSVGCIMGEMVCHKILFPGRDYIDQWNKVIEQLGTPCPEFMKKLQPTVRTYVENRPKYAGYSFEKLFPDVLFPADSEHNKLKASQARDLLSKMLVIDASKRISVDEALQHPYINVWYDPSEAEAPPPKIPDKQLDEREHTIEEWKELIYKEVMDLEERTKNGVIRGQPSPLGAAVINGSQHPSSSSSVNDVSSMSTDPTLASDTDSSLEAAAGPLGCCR

## CCc1cc(Nc2nccc(-c3c(-c4ccc(OC)c(C(=O)Nc5c(F)cccc5F)c4)nc4ccccn34)n2)c(OC)cc1N1CCC(N2CCN(S(C)(=O)=O)CC2)CC1
[1]
  % of inhibition: 59%
[2]
  IC50: > 10 µM

## CN(C)CCOc1ccc(-c2nc(-c3ccncc3)c(-c3ccc4c(c3)CC/C4=N\O)[nH]2)cc1
[3]
  % of control: 100%
[4]
  % of control: 4%

## Nc1cnc(N2CCc3cc(S(=O)(=O)Nc4c(F)cc(Cl)cc4F)cc(N4CCCC4=O)c32)nc1 [TP-020n]
[5]
  % of control: 98%

## C=CC(=O)Nc1cc(-n2c(=O)ccc3cnc4ccc(-c5ccc(NS(C)(=O)=O)cc5)cc4c32)ccc1C
[6]; at 1 µM
  % of control: 100%
[6]; at 10 µM
  % of control: 100%

## CNCCN1CCC(c2cc(CN(C)C(=O)c3cccc(Oc4ccccc4)c3)ccn2)CC1
[7]
  % activity: > 90%

## CC[C@@H]1[C@H](F)C(=O)N[C@@H]1COc1nccc2cc(C(N)=O)c(OC)cc12 [ZIMLOVISERTIB]
[8]
  % of inhibition: 2.99%
[9]
  % of inhibition: 2.45%

## CCC(=O)N1CCN(c2ccc(-n3c(=O)ccc4cnc5ccc(-c6cnc7ccccc7c6)cc5c43)cc2C(F)(F)F)CC1
[10]
  % of control: 100%

## Cc1cnc(Nc2ccc(F)cc2Cl)nc1-c1c[nH]c(C(=O)N[C@H](CO)c2cccc(Cl)c2)c1
[11]
  % of inhibition: 6%
Insulin receptor
  % of inhibition: 4%
